Measurements as given in US20030199671A1, “Binding molecules for Fc-region polypeptides” (priority 2001, published 2003).

Legend:
IgG4 [1] = molecular target: T1, IgG4 (Homo sapiens, UniProt P01861); format: binding; parameters: all human subtypes derived from myeloma patients; purchased Calbiochem 400126; host or cells: myeloma patients; conditions: Table 9; immobilized peptide, 5.0 mg/ml resin load
Summary of the method: (§1)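 Read-out is A280 of unbound IgG (1.4 mg/ml extinction coefficient), with percent bound derived against non-filtered or negative controls. Targets were incubated with immobilized peptides in PBST or TBST for 1-1.5 h at room temperature. Hydrolyzed Sepharose and immobilized Protein A serve as negative and positive controls.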

IgG3 [2] = molecular target: T2, IgG3 (Homo sapiens, UniProt P01860); format: binding; parameters: all human subtypes derived from myeloma patients; purchased Calbiochem 400124; host or cells: myeloma patients; conditions: Table 9; immobilized peptide, 5.0 mg/ml resin load
Summary of the method: (§2)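 Steps: dilute IgG in PBST or TBST; incubate with immobilized peptide 1-1.5 h, RT; collect unbound by centrifugation; measure A280; wash three times; elute with 0.1 M sodium bicarbonate pH 8.5 and/or 0.1 M sodium citrate pH 4.0 for 30-60 min and quantitate.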

[3] = molecular target: Fc (mixture of human plasma IgG isoforms); test: Fluorescence anisotropy binding, fluorescein-labeled peptide; conditions: pH 8.0, 0.05 M Tris-HCl, 0.2 M NaCl
Description: (§3) Peptides were synthesized by BACHEM Bioscience, Inc., (King of Prussia, Pa.), fluorescein labeled and purified by HPLC. Binding studies were performed using either a mixture of human plasma IgG isoforms (the Fc target) or the individual human plasma IgG isoforms: IgG1, IgG2, IgG3, or IgG4. All Fc target proteins were obtained from Calbiochem.
(§4) All measurements were performed in 384 well microplates with 20 nM fluorescein-labeled peptide and various concentrations of the IgG isoform in a volume of between 10 and 20 μl using a Tecan Polarion fluorescence polarization plate reader. All binding buffers included 0.01% (v/v) Tween 20 to prevent peptide adsorption to the microplate. The binding mixture was equilibrated for 10 minutes in the microplate at 30° C. prior to performing the measurement.
(§5) Peptides were synthesized, fluorescein-labeled and HPLC purified as described above. Binding studies were performed using either a mixture of human plasma IgG isoforms (the Fc protein) or the individual human plasma IgG isoforms: IgG1, IgG2, IgG3, or IgG4.
(§6) Measurements were performed in 384-well microplates with 2 nM fluorescein-labeled peptide and a varied concentration of the IgG isoform target in a volume of 10 μl using a Tecan Polarion fluorescence polarization plate reader. The Fc binding buffer was 50 mM Tris-HCl, 200 mM NaCl, pH 8.0, 0.01% Tween 20. The IgG binding buffer was PBS with 0.01% Tween 20. The binding mixtures were equilibrated for 10 minutes in the microplate at 30° C. prior to performing the measurements.

human plasma IgG3 = molecular target: T3, human plasma IgG3 (Homo sapiens, UniProt P01860); test: as above
T3 construct: the individual human plasma IgG isoforms: IgG1, IgG2, IgG3, or IgG4; purchased Calbiochem; host or cells: human plasma
Description: as §3, §4, §5, §6

human plasma IgG4 = molecular target: T4, human plasma IgG4 (Homo sapiens, UniProt P01861); test: as above
T4 construct: the individual human plasma IgG isoforms: IgG1, IgG2, IgG3, or IgG4; purchased Calbiochem; host or cells: human plasma
Description: as §3, §4, §5, §6

mouse IgG = format: binding; conditions: Table 11; unfractionated IgG
Summary of the method: as §2

bovine IgG = format: binding; conditions: Table 11; unfractionated IgG
Summary of the method: as §2

human IgG1 = molecular target: T5, human IgG1 (Homo sapiens, UniProt P01857); format: binding; conditions: Table 9; immobilized peptide, 5.0 mg/ml resin load
T5 construct: all human subtypes derived from myeloma patients; purchased Calbiochem 400120; host or cells: myeloma patients
Summary of the method: as §2

human IgG = format: binding; conditions: Table 11; unfractionated IgG
Summary of the method: as §2

goat IgG = format: binding; conditions: Table 11; unfractionated IgG
Summary of the method: as §2

human IgG2 = molecular target: T6, human IgG2 (Homo sapiens, UniProt P01859); format: binding; conditions: Table 9; immobilized peptide, 5.0 mg/ml resin load
T6 construct: all human subtypes derived from myeloma patients; purchased Calbiochem 400122; host or cells: myeloma patients
Summary of the method: as §1

human plasma IgG1 = molecular target: T7, human plasma IgG1 (Homo sapiens, UniProt P01857); test: Fluorescence anisotropy binding, fluorescein-labeled peptide
T7 construct: the individual human plasma IgG isoforms: IgG1, IgG2, IgG3, or IgG4; purchased Calbiochem; host or cells: human plasma
Description: as §4, §5, §6

human plasma IgG2 = molecular target: T8, human plasma IgG2 (Homo sapiens, UniProt P01859); test: as above
T8 construct: the individual human plasma IgG isoforms: IgG1, IgG2, IgG3, or IgG4; purchased Calbiochem; host or cells: human plasma
Description: as §4, §5, §6

IgG3 [4] = molecular target: T2, IgG3; test: Competition between synthetic peptides and Protein A for Fc binding; parameters: the individual human plasma IgG isoforms: IgG1, IgG2, IgG3, or IgG4; purchased Calbiochem; host or cells: human plasma; key: NB: no detected binding.; ?: partial decrease in anisotropy with added competitor; conditions: 5 mg/ml protein A
Description: (§7) Cross-competition studies between peptides were performed using 20 nM fluorescein-labeled peptide and 1-2 μM IgG1, IgG2, IgG3, or IgG4 in the presence and absence of a maximum of 100 μM unlabeled peptide or 5 mg/ml protein A.
(§8) This is consistent with the fact that Protein A is known not to bind human IgG3.

IgG4 [5] = molecular target: T1, IgG4; test: as above; parameters: the individual human plasma IgG isoforms: IgG1, IgG2, IgG3, or IgG4; purchased Calbiochem; host or cells: human plasma; key: NB: no detected binding.; ?: partial decrease in anisotropy with added competitor; conditions: 5 mg/ml protein A
Description: as §7, §8

[6] = pH 9.3, 0.01 M sodium bicarbonate

% IgG Capture - Batch Binding, Human IgG4 (IgG4 [1]): 6%
% IgG Capture - Batch Binding, Human IgG3 (IgG3 [2]): 36%
Kd [3]: 1.6 ± 0.6 µM
Kd (human plasma IgG3; pH 5.7, 0.01 M Tris-acetate): 0.3 ± 0.3 µM
Kd (human plasma IgG3; pH 7.4, 0.01 M Tris-HCl): > 10 µM
Kd (human plasma IgG3; [6]): > 10 µM
Kd (human plasma IgG4; pH 5.7, 0.01 M Tris-acetate): > 10 µM
Kd (human plasma IgG4; pH 7.4, PBS, […] NaCl): > 10 µM
Kd (human plasma IgG4; [6]): > 10 µM
% IgG Capture - Batch Binding, Mouse IgG (mouse IgG): 2%
% IgG Capture - Batch Binding, Bovine IgG (bovine IgG): 0%
% IgG Capture - Batch Binding, Human IgG1 (human IgG1): 28%
% IgG Capture - Batch Binding, Human IgG (human IgG): 16%
% IgG Capture - Batch Binding, Goat IgG (goat IgG): 0%
% IgG Capture - Batch Binding, Human IgG2 (human IgG2): 16%
Kd (human plasma IgG1; pH 5.7, 0.01 M Tris-acetate, 0 M NaCl): < 0.1 µM
Kd (human plasma IgG1; pH 7.4, 0.01 M Tris-HCl): < 2 µM
Kd (human plasma IgG1; pH 7.4, PBS, […] NaCl): 0.4 ± 0.2 µM
Kd (human plasma IgG1; [6]): 0.4 ± 0.4 µM
Kd (human plasma IgG2; pH 5.7, 0.01 M Tris-acetate): > 1 µM
Kd (human plasma IgG2; pH 7.4, 0.01 M Tris-HCl): 2 ± 0.7 µM
Kd (human plasma IgG2; pH 7.4, PBS, […] NaCl): 1.1 ± 0.3 µM
Kd (human plasma IgG2; [6]): 2 ± 2.7 µM
Competition between labeled peptide and Protein A, IgG3 (IgG3 [4]): ?
Competition between labeled peptide and Protein A, IgG4 (IgG4 [5]): NB
Compound: CC(=O)N[C@@H](C)C(=O)NCC(=O)N[C@@H](Cc1ccc(O)cc1)C(=O)N[C@@H](Cc1ccc(O)cc1)C(=O)N[C@@H](Cc1c[nH]c2ccccc12)C(=O)N[C@H]1CSSC[C@@H](C(=O)N2CCC[C@H]2C(=O)N[C@@H](CC(=O)O)C(=O)N[C@@H](CCC(N)=O)C(=O)NCC(=O)N[C@H](C(=O)N2CCC[C@H]2C(=O)NCC(=O)N2CCC[C@H]2C(=O)N[C@@H](CCC(=O)O)C(=O)NCC(=O)NCC(=O)NCC(=O)N[C@@H](CCCCN)C(N)=O)[C@@H](C)O)NC(=O)[C@H](CC(C)C)NC(=O)CNC(=O)[C@H](Cc2c[nH]c3ccccc23)NC(=O)[C@H](Cc2ccc(O)cc2)NC(=O)[C@H](CC(N)=O)NC1=O [DX254]
